In patent US20170105981A1, “METHODS FOR STABILIZING HYPOXIA INDUCIBLE FACTOR-2 ALPHA AS A METHOD FOR TREATING CANCER” (The Ohio State Innovation Foundation, priority 2011, published 2017):

Tests used:
[1] = tested on: phosphoglycerate kinase (PGK) mRNA; assay: PGK mRNA expression (qPCR) in HIF-1α−/− fibroblasts; assay type: cell-based, murine; settings: hypoxic conditions (1% O2), 1, 10 and 100 μM, vs. hypoxia control, FIG. 2B
Description: Total RNA was isolated from tissues and cells by using TRIzol™ Reagent (Invitrogen) and the RNeasy kit (Qiagen), respectively. 1 μg RNA was used for reverse transcription using SuperScript II First-Strand Synthersis System (Invitrogen). cDNA's were amplified in a SYR Green or TaqMan Universal Master Mix (Applied Biosystems). Quantitative PCR (qPCR) was performed on ABI Prism 7700 sequence detection system. PCR conditions are: 10 min at 95° C., 40 cycles of 15 seconds at 95° C. and 1 minute at 60° C. The relative amount of mRNA was calculated after normalization to β-actin.
Cells were cultured in DMEM (#11965-092, Invitrogen) supplemented with 10% fetal bovine serum (Invitrogen), 100 U/mL penicillin and […] streptomycin. For glucose deprivation, DMEM without glucose (#11966-025, Invitrogen) was used.
Mouse embryonic fibroblasts (MEFs) were isolated from E12.5 embryos and immortalized by stable transfection with SV40 large T antigen.

HIF-2α = assay: Immunoblot for HIF-2α in murine bone marrow-derived macrophages; assay type: cell-based; settings: murine bone marrow-derived macrophages treated 18 hours; p=0.001; FIG. 11A
Description: To generate bone marrow-derived macrophages (BDMs), femoral bone marrow was isolated and progenitor cells were plated in RPMI-1640 supplemented with 10% FBS, 1% PSA, 10 μg/mL of polymyxin B, and 20 ng/mL of recombinant murine M-CSF. Cells were cultured for 5 days with the addition of fresh M-CSF every other day. Differentiated BDM were serum-starved for 2 hours and then treated with 100 ng/mL of murine GM-CSF and/or 25 μM the disclosed HIF-2α stabilizer in RPMI-1640 containing 1% FBS and 10 μg/mL polymixin B. Culture supernatants were collected after 72 hours and assayed for VEGF and sVEGFR-1 content by ELISA (R&D Systems).
In order to confirm the selective upregulation of HIF-2α by the disclosed HIF-2α stabilizer, murine bone marrow-derived macrophages were treated with the disclosed HIF-2α stabilizer for 18 hours, and cells were then lysed and immunoblotted for HIF-1α and HIF-2α.

Q: Which “PGK mRNA (relative amount)” value [1] does the source give for `O=C(O)CNC(=O)c1ncc(-c2cccc(F)c2)cc1O` [disclosed HIF-2α stabilizer, {[5-(3-Fluorophenyl)-3-hydroxypyridine-2-carbonyl]amino} acetic acid] here?
A: dramatic reduction

Q: What about the HIF-2α protein (HIF-2α) of the same molecule?
A: increase
